Test results reported in the Kinase Knowledgebase extract (Sharma et al. 2016).
“And” between values parts separate entries of the source, which are not always exact repeats. Equal entries are not always repeated.

What was measured:
PIK3CB;PIK3CA = PIK3CB;PIK3CA (UniProt P42338); assay: PI3-Kinase alpha/beta Inhibition
PIK3CG = PIK3CG (UniProt P48736); assay: PIK3-gamma Enzyme Assay
Sequence of PIK3CG (P48736 whole entry, looked up): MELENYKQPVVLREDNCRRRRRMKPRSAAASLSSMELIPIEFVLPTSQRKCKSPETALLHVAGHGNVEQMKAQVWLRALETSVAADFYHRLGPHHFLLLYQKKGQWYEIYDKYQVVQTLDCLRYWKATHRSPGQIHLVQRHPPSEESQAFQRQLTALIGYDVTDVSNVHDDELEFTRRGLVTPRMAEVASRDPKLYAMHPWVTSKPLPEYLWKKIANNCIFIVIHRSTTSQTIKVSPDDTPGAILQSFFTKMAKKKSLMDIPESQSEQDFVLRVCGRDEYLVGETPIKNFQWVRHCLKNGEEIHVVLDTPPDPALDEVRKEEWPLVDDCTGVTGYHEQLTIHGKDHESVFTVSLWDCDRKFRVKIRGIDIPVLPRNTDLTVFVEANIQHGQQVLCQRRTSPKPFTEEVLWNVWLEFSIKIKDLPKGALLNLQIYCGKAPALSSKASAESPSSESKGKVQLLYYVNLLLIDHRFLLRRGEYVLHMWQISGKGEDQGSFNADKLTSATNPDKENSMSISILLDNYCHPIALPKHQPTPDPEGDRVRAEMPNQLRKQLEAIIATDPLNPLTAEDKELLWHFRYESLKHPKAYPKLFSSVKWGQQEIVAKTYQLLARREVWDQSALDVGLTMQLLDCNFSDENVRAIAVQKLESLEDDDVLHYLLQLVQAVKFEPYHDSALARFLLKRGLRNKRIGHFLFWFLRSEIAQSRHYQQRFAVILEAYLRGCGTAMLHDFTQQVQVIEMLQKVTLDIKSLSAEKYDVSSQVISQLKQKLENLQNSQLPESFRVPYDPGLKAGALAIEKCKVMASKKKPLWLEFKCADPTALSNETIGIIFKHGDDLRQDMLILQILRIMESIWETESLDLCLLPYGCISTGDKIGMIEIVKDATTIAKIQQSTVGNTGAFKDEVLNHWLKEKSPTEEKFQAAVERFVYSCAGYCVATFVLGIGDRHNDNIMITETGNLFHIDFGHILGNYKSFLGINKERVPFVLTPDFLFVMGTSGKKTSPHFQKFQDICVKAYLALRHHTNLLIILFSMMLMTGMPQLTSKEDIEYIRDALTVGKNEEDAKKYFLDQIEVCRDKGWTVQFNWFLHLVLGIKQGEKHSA

| IC50 (PIK3CB;PIK3CA) | IC50 (PIK3CG) | Compound |
| --- | --- | --- |
| 1000 nM |  | O=c1cc(N2CCOCC2)nc2c(Oc3ccccc3)cccn12 |
| 100 nM |  | O=c1cc(N2CCOCC2)oc2c(Cc3ccccc3)cccc12 |
| 50 nM |  | Cc1cc(NCc2ccccc2Cl)c2nc(N3CCOCC3)cc(=O)n2c1 |
| 5000 nM |  | Cc1cc(Nc2ccccc2C(F)(F)F)c2nc(N3CCOCC3)cc(=O)n2c1 |
| 100 nM |  | Cc1cc(Nc2ccc(O)cc2)c2nc(N3CCOCC3)cc(=O)n2c1 |
| 50 nM |  | Cc1cc(CNc2ccccc2)c2nc(N3CCOCC3)cc(=O)n2c1 |
| 50 nM |  | O=c1cc(N2CCOCC2)[nH]c2c(Oc3ccc(F)cc3)cccc12 |
| 500 nM |  | O=c1cc(N2CCOCC2)nc2c(OCc3cccc(Cl)c3)cccn12 |
| 1000 nM |  | Cc1ccc(Oc2cc(C)cn3c(=O)cc(N4CCOCC4)nc23)cc1 |
| 50 nM |  | COc1ccccc1CNc1cc(C)cn2c(=O)cc(N3CCOCC3)nc12 |
| 1000 nM |  | Cc1cc(Nc2ccncc2)c2nc(N3CCOCC3)cc(=O)n2c1 |
| 750 nM |  | Cc1cc(Oc2cccn3c(=O)cc(N4CCOCC4)nc23)ccc1F |
| 2000 nM |  | Cc1ccc(Cc2cccc3c(=O)cc(N4CCOCC4)[nH]c23)cc1 |
| 20 nM |  | Cc1cc(F)ccc1Oc1cccc2c(=O)cc(N3CCOCC3)[nH]c12 |
| 2000 nM |  | O=c1cc(N2CCOCC2)[nH]c2c(Cc3ccccc3)cccc12 |
| 5000 nM and 10000 nM and 2000 nM |  | Cc1c(Oc2ccccc2)ccc2c(=O)cc(N3CCOCC3)oc12 |
| 100 nM |  | Cc1cc(Nc2ccc(O)cc2C)c2nc(N3CCOCC3)cc(=O)n2c1 |
| 50 nM |  | Cc1cccc(Oc2cccc3c(=O)cc(N4CCOCC4)[nH]c23)c1 |
| 1000 nM |  | O=c1cc(N2CCOCC2)oc2c(-c3ccc(F)cc3)cccc12 |
| 200 nM |  | O=c1cc(N2CCOCC2)oc2c(-c3ccccc3C(F)(F)F)cccc12 |
| 1000 nM |  | O=c1cc(N2CCOCC2)[nH]c2c(Cc3ccc(F)cc3)cccc12 |
| 500 nM |  | Cc1ccc(Oc2cccc3c(=O)cc(N4CCOCC4)[nH]c23)cc1 |

| IC50 (PIK3CB;PIK3CA) | IC50 (PIK3CG) | Compound |
| --- | --- | --- |
| 100 to 150 nM |  | Cc1cc(Oc2cccc3c(=O)cc(N4CCOCC4)oc23)ccc1F |
| 1000 nM |  | Cc1ccc(S(=O)(=O)Oc2cccc3c(=O)cc(N4CCOCC4)[nH]c23)cc1 |
| 500 nM |  | Cc1cc(NCc2ccccn2)c2nc(N3CCOCC3)cc(=O)n2c1 |
| 500 nM |  | O=c1cc(N2CCOCC2)oc2c(-c3ccccc3Cl)cccc12 |
| 10000 nM |  | Cc1cc(Nc2ncccc2C)c2nc(N3CCOCC3)cc(=O)n2c1 |
| 100 nM |  | O=c1cc(N2CCOCC2)[nH]c2c(Oc3ccccc3)cccc12 |
| 500 nM |  | Cc1cc(NCc2ccncc2)c2nc(N3CCOCC3)cc(=O)n2c1 |
| 10000 nM |  | O=c1cc(N2CCOCC2)nc2c(OCc3cccnc3)cccn12 |
| 1000 nM |  | Cc1cc(-c2ccsc2)c2nc(N3CCOCC3)cc(=O)n2c1 |
| 10000 nM |  | Cc1c(OCc2ccccc2)ccc2c(=O)cc(N3CCOCC3)oc12 |
| 50 nM |  | O=c1cc(N2CCOCC2)[nH]c2c(Sc3ccccc3)cccc12 |
| 200 nM |  | Cc1cc(N[C@H](C)c2ccccc2)c2nc(N3CCOCC3)cc(=O)n2c1 |
| 50 nM |  | Cc1ccccc1Oc1cccc2c(=O)cc(N3CCOCC3)[nH]c12 |
| 1000 nM |  | O=c1cc(N2CCOCC2)oc2c(OCc3cccnc3)cccc12 |
| 25000 nM |  | O=c1cc(N2CCOCC2)oc2c(O)cccc12 |
| 200 nM |  | Cc1cc(Nc2ccccc2O)c2nc(N3CCOCC3)cc(=O)n2c1 |
| 11100 nM |  | Cc1cccn2c(=O)cc(N3CCOCC3)nc12 |
| 10000 nM |  | O=c1cc(N2CCOCC2)oc2cc(/C=C/c3ccccc3)ccc12 |
| 500 nM |  | O=C(O)c1cccc(Oc2cccc3c(=O)cc(N4CCOCC4)[nH]c23)c1 |
| 1000 nM |  | Cc1cc(NCC2CCNCC2)c2nc(N3CCOCC3)cc(=O)n2c1 |
| 500 nM |  | COC(=O)c1cccc(Oc2cccc3c(=O)cc(N4CCOCC4)[nH]c23)c1 |
| 500 nM |  | O=c1cc(N2CCOCC2)nc2c(OCc3ccccc3)cccn12 |

| IC50 (PIK3CB;PIK3CA) | IC50 (PIK3CG) | Compound |
| --- | --- | --- |
| 1000 nM |  | Cc1cc(CCc2ccncc2)c2nc(N3CCOCC3)cc(=O)n2c1 |
| 2000 nM |  | O=c1cc(N2CCOCC2)oc2cc(OCc3cccnc3)ccc12 |
| 10000 nM |  | O=c1cc(N2CCOCC2)nc2c(OCc3ccccn3)cccn12 |
| 100 nM and 50 nM |  | O=c1cc(N2CCOCC2)oc2c(Oc3ccccc3)cccc12 |
| 200 nM |  | Cc1cc(Nc2ccc(F)cc2C)c2nc(N3CCOCC3)cc(=O)n2c1 |
| 7500 nM |  | CC(C)(C)c1ccc(COc2cccn3c(=O)cc(N4CCOCC4)nc23)cc1 |
| 50 nM |  | Cc1cc(NCc2ccccc2)c2nc(N3CCOCC3)cc(=O)n2c1 |
| 1000 nM |  | Cc1cc(NCc2ccc(Cl)cc2)c2nc(N3CCOCC3)cc(=O)n2c1 |
| 1500 nM |  | O=c1cc(N2CCOCC2)nc2c(Cc3ccccc3)cccn12 |
| 2000 nM |  | Cc1ccccc1-c1cccc2c(=O)cc(N3CCOCC3)oc12 |
| 1000 nM |  | COc1cccc(COc2cccn3c(=O)cc(N4CCOCC4)nc23)c1 |
| 1000 nM |  | Cc1cc(Cl)ccc1Oc1cccc2c(=O)cc(N3CCOCC3)[nH]c12 |
| 150 nM |  | O=c1cc(N2CCOCC2)[nH]c2c(Oc3ccccc3F)cccc12 |
| 10 nM |  | Cc1cc(CNc2ccc(F)cc2C)c2nc(N3CCOCC3)cc(=O)n2c1 |
| 2000 nM |  | Cc1cc(-c2ccccc2C(F)(F)F)c2nc(N3CCOCC3)cc(=O)n2c1 |
| 2000 nM |  | Cc1cc(Nc2ccccc2OCCN(C)C)c2nc(N3CCOCC3)cc(=O)n2c1 |
| 1000 nM |  | Cc1cc(N[C@@H](C)c2ccccc2)c2nc(N3CCOCC3)cc(=O)n2c1 |
| 100 nM | 2000 nM | O=c1cc(N2CCOCC2)[nH]c2c(OCc3ccccc3)cccc12 |
| 1000 nM |  | Cc1cc(Nc2ccc(Cl)cc2)c2nc(N3CCOCC3)cc(=O)n2c1 |
| 10500 nM |  | O=c1cc(N2CCOCC2)nc2c(-c3ccccc3)cccn12 |
| 20000 nM |  | Cc1cc(C2CCN(C)C2=O)c2nc(N3CCOCC3)cc(=O)n2c1 (configuration not stated) |
| 9800 nM |  | Cc1cc(-c2ccccc2)c2nc(N3CCOCC3)cc(=O)n2c1 |
